Measurements reported in patent publication US20220304979A1, “METHODS OF REDUCING DISEASE FLARES” (Chinook Therapeutics, Inc., priority 2019, published 2022).

What was measured:
[1] = tested on: primary human renal mesangial cells (HRMCs); experiment: proliferation (BrdU) of mesangial cells stimulated with IgA-containing immune complexes; assay type: cell-based; conditions: immune complexes purified from three patients with IgA nephropathy
Text: Primary human mesangial cells in a culture were stimulated with pathogenic galactose deficient (Gd)-IgA containing immune complexes isolated from human IgA nephropathy patients. […] Specifically, pathogenic IgA-containing immune complexes were isolated from serum from either IgA nephropathy patients or age, gender and ethnicity-matched healthy individuals. Frozen serum was purchased from BioIVT and IgA-containing immune complexes were purified using jacalin affinity chromatography. […] Purified IgA-containing immune complexes were concentrated using a 100K Amicon filtration unit and the amount of total IgA and galactose-deficient IgA (Gd-IgA) in the immune complexes was measured by ELISA (ThermoFisher and IBL America, respectively). […] See, e.g., Novak et. al., Kidney International, 67, pp. 504-516; 2005; Novak et. al., Nephrol. Dial. Transplant, 26, pp. 3451-3457; 2011; Liang et. al., Cell Physiol. Biochem., 36, pp. 1793-1808; 2015; Nguyen et. al., Clin. Kidney 1, 12 (2), pp, 232-238; 2019.

[2] = tested on: g-ddY mice; experiment: albuminuria (UACR) in g-ddY mouse model of IgA nephropathy; assay type: in vivo; conditions: for albuminuria compared to baseline: approximately 5 days
Text: The grouped ddY (g-ddY) mouse is a spontaneous model of early-onset IgA nephropathy characterized by IgA immune complex deposition in the mesangium of the kidney, leading to significant proteinuria, glomerular hypercellularity, mesangioproliferative glomerular lesions, glomerular sclerosis and reduced kidney function, all hallmarks of human IgA nephropathy (J Am Soc Nephrol 23: 1364-1374, 2012). Consistent with human IgA nephropathy, the mesangial IgA deposits in the g-ddY mouse are also accompanied by deposition of IgG and complement C3.

[3] = tested on: kidney tissue of g-ddY mice; experiment: RNA-seq differential gene expression in kidney tissue of g-ddY mice; assay type: in vivo, mouse
Procedure: RNA isolation and sequencing libraries were generated using standard protocols. Sequencing was performed using an Illumina NextSeq500 using manufacturer's instructions with a read length of 75 bp and a read depth of 30 million. Raw data was assembled to FASTQ files. Following QC analysis, high quality sequencing reads (e.g., reads with a Phred quality score >36) were aligned to the mouse reference genome (GRCm38-mm10) using the default parameters of the align algorithm and transcript count tables of each library was generated using the default parameters of the featureCounts algorithm of the RSubread package (Liao […], Shi W, 2019). High quality sequencing reads mapped to 27,129 genes. Following additional QC of low count filtering (i.e. transcripts <10 counts across all samples), 16,207 genes were identified and used for further analysis. The remaining sequencing read counts of the included 16,207 genes were normalized to library size, log-transformed, and were quantified as counts per million (CPM). Select RNA-seq counts were validated using qPCR. Sequencing read counts (CPM) were used for identification of differential gene expression between specified populations using the quasi-likelihood methodology of the edgeR package. […] MA plots were generated using edgeR. Heatmaps and other plots were generated using the gplots and ggplot2 package.

[4] = tested on: kidney tissue of g-ddY mice; experiment: Ingenuity Pathway Analysis (IPA) canonical pathways of kidney RNA-seq, g-ddY mice; assay type: in vivo, mouse; conditions: 30 mg/kg/day
[5] = patients with diabetic kidney disease (DKD); cited from earlier work
[6] = atrasentan 10 mg/kg/day vs 0 mg/kg/day (control), g-ddY mice
[7] = atrasentan 20 mg/kg/day vs 0 mg/kg/day (control), g-ddY mice
[8] = atrasentan 30 mg/kg/day vs 0 mg/kg/day (control), g-ddY mice

CCCCN(CCCC)C(=O)CN1C[C@H](c2ccc3c(c2)OCO3)[C@@H](C(=O)O)[C@@H]1c1ccc(OC)cc1 [atrasentan, (2R,3R,4S)-4-(1,3-benzodioxol-5-yl)-1-[2-(dibutylamino)-2-oxoethyl]-2-(4-methoxyphenyl)pyrrolidine-3-carboxylic acid]
hyperproliferation of HRMCs induced by IgA containing immune complexes [1]: significantly attenuated the hyperproliferation
effect to reduce UACR from baseline compared to control group ([2]; 10 mg/kg/day): not significant
effect to reduce UACR from baseline compared to control group ([2]; 20 mg/kg/day, P=0.0498, un-paired t-test): statistically significant compared to the control group
albuminuria compared to baseline ([2]; 20 mg/kg/day, just failed statistical significance (P=0.0593)): reduced from baseline to a similar extent
effect to reduce UACR from baseline compared to control group ([2]; 30 mg/kg/day, P=0.029): statistically significant compared to the control group
albuminuria compared to baseline ([2]; 30 mg/kg/day, paired t-test): significantly (P=0.0002, paired two-sided t-test) reduced albuminuria from baseline
ET1 gene signature genes downregulated versus untreated control ([3]; 10 mg/kg/day): Grk5, Mllt3, Klf2, Pparg, Hgf, Edn1, Fos, Ptgs2, and IL-1b
ET1 gene signature genes upregulated versus untreated control ([3]; 10 mg/kg/day): Ccnd1, Ppara, Agt, Map2k2 and Hoxa9
ET1 gene signature genes downregulated versus untreated control ([3]; 20 mg/kg/day): Nfatc1, Grk5, Klf2, Cav1, Pparg, Itga5, Myc, Ednra, Sell, Hgf, Mmp2, Edn1, Syk, Fos, and IL-1b
ET1 gene signature genes upregulated versus untreated control ([3]; 20 mg/kg/day): Ccdn1, Cat, Ppara, Map2k2, Hoxa9, Agt, and Egfr
ET1 gene signature genes downregulated versus untreated control ([3]; 30 mg/kg/day): Ednrb, Myc, Mllt3, Hdac7, Ednra, Itga5, Grk5, Pparg, Klf2, Hgf, Mmp2, Sell, Sphk1, Fos, Syk, Edn1, and IL-1b
ET1 gene signature genes upregulated versus untreated control ([3]; 30 mg/kg/day): Ccnd1, Agt, Cat, Map2k2, Hoxa9, and Ppara
gene expression of Ednra and Ednrb ([3]; 30 mg/kg/day): downregulated
gene expression of ET1 (End1) ([3]; all three doses (10, 20, 30 mg/kg/day)): downregulated
logFC Ahnak gene expression [3, 6]: −0.5756
logFC Akap12 gene expression [3, 6]: −0.2687
logFC Akt3 gene expression [3, 6]: −0.3863
logFC Aldob gene expression [3, 6]: 0.4194
logFC Ankrd12 gene expression [3, 6]: −0.2824
logFC C7 gene expression [3, 6]: −0.7767
logFC Caldl gene expression [3, 6]: −0.3719
logFC Cblb gene expression [3, 6]: −0.082
logFC Ebfl gene expression [3, 6]: −0.3301
logFC Epb4112 gene expression [3, 6]: −0.4375
logFC Etsl gene expression [3, 6]: −0.2198
logFC Fchsd2 gene expression [3, 6]: −0.2564
logFC Frmd4a gene expression [3, 6]: −0.2838
logFC Gata3 gene expression [3, 6]: −0.4822
logFC Gpx3 gene expression [3, 6]: 0.6802
logFC Igfbp7 gene expression [3, 6]: 0.2052
logFC Lama2 gene expression [3, 6]: −0.2955
logFC Maml2 gene expression [3, 6]: −0.2318
logFC Mef2c gene expression [3, 6]: −0.6217
logFC Meisl gene expression [3, 6]: −0.2507
logFC Myh9 gene expression [3, 6]: −0.2094
logFC Myole gene expression [3, 6]: −0.2349
logFC Nbea gene expression [3, 6]: −0.2819
logFC Nr4a1 gene expression [3, 6]: −1.525
logFC Piezo2 gene expression [3, 6]: −0.4078
logFC Postn gene expression [3, 6]: −1.385
logFC Pparg gene expression [3, 6]: −0.6129
logFC Ppp1r12a gene expression [3, 6]: −0.1995
logFC Prkgl gene expression [3, 6]: −0.2187
logFC Psd3 gene expression [3, 6]: −0.3544
logFC Ptprm gene expression [3, 6]: −0.2614
logFC Rapgef5 gene expression [3, 6]: −0.2732
logFC Raphl gene expression [3, 6]: −0.2965
logFC Rbms3 gene expression [3, 6]: −0.5749
logFC Robol gene expression [3, 6]: −0.4803
logFC Stard13 gene expression [3, 6]: −0.7224
logFC Tacc1 gene expression [3, 6]: −0.2449
logFC Tcf4 gene expression [3, 6]: −0.2176
logFC Tjpl gene expression [3, 6]: −0.2489
logFC Tns3 gene expression [3, 6]: −0.2638
logFC Unc5c gene expression [3, 6]: 0.5618
logFC Utrn gene expression [3, 6]: −0.49
logFC Zeb2 gene expression [3, 6]: −0.5638
logFC Ahnak gene expression [3, 7]: −0.7128
logFC Akap12 gene expression [3, 7]: −0.5404
logFC Akt3 gene expression [3, 7]: −0.4673
logFC Aldob gene expression [3, 7]: 0.4923
logFC Ankrd12 gene expression [3, 7]: −0.2463
logFC C7 gene expression [3, 7]: −1.277
logFC Caldl gene expression [3, 7]: −0.5361
logFC Cblb gene expression [3, 7]: −0.2068
logFC Ebfl gene expression [3, 7]: −0.3512
logFC Epb4112 gene expression [3, 7]: −0.6149
logFC Etsl gene expression [3, 7]: −0.3065
logFC Fchsd2 gene expression [3, 7]: −0.1882
logFC Frmd4a gene expression [3, 7]: −0.3955
logFC Gata3 gene expression [3, 7]: −0.4924
logFC Gpx3 gene expression [3, 7]: 0.71
logFC Igfbp7 gene expression [3, 7]: 0.1088
logFC Lama2 gene expression [3, 7]: −0.4437
logFC Maml2 gene expression [3, 7]: −0.2311
logFC Mef2c gene expression [3, 7]: −0.6302
logFC Meisl gene expression [3, 7]: −0.3593
logFC Myh9 gene expression [3, 7]: −0.4543
logFC Myole gene expression [3, 7]: −0.292
logFC Nbea gene expression [3, 7]: −0.1933
logFC Piezo2 gene expression [3, 7]: −0.6148
logFC Postn gene expression [3, 7]: −2.293
logFC Pparg gene expression [3, 7]: −0.5616
logFC Ppp1r12a gene expression [3, 7]: −0.2135
logFC Prkgl gene expression [3, 7]: −0.328
logFC Psd3 gene expression [3, 7]: −0.5227
logFC Ptprm gene expression [3, 7]: −0.2678
logFC Rapgef5 gene expression [3, 7]: -0.3804
logFC Raphl gene expression [3, 7]: −0.3852
logFC Rbms3 gene expression [3, 7]: −0.7192
logFC Robol gene expression [3, 7]: −0.7261
logFC Stard13 gene expression [3, 7]: −0.6367
logFC Tacc1 gene expression [3, 7]: −0.3693
logFC Tcf4 gene expression [3, 7]: −0.224
logFC Tjpl gene expression [3, 7]: −0.3054
logFC Tns3 gene expression [3, 7]: −0.3043
logFC Unc5c gene expression [3, 7]: 0.3685
logFC Utrn gene expression [3, 7]: −0.5143
logFC Zeb2 gene expression [3, 7]: −0.6492
logFC Ahnak gene expression [3, 8]: −1.013
logFC Akap12 gene expression [3, 8]: −0.8211
logFC Akt3 gene expression [3, 8]: −0.4843
logFC Aldob gene expression [3, 8]: 0.748
logFC Ankrd12 gene expression [3, 8]: −0.4726
logFC C7 gene expression [3, 8]: −1.079
logFC Caldl gene expression [3, 8]: −0.506
logFC Cblb gene expression [3, 8]: −0.4288
logFC Ebfl gene expression [3, 8]: −0.4506
logFC Epb4112 gene expression [3, 8]: −0.7021
logFC Etsl gene expression [3, 8]: −0.3379
logFC Fchsd2 gene expression [3, 8]: −0.3772
logFC Frmd4a gene expression [3, 8]: −0.5742
logFC Gata3 gene expression [3, 8]: −0.5216
logFC Gpx3 gene expression [3, 8]: 1.122
logFC Igfbp7 gene expression [3, 8]: 0.4259
logFC Lama2 gene expression [3, 8]: −0.4895
logFC Maml2 gene expression [3, 8]: −0.4441
logFC Mef2c gene expression [3, 8]: −0.6869
logFC Meisl gene expression [3, 8]: −0.4934
logFC Myh9 gene expression [3, 8]: −0.6171
logFC Myole gene expression [3, 8]: −0.4177
logFC Nbea gene expression [3, 8]: −0.432
logFC Piezo2 gene expression [3, 8]: −0.8237
logFC Postn gene expression [3, 8]: −1.247
logFC Pparg gene expression [3, 8]: −0.6781
logFC Ppp1r12a gene expression [3, 8]: −0.3826
logFC Prkgl gene expression [3, 8]: −0.6356
logFC Psd3 gene expression [3, 8]: −0.5843
logFC Ptprm gene expression [3, 8]: −0.5453
logFC Rapgef5 gene expression [3, 8]: −0.4225
logFC Raphl gene expression [3, 8]: −0.5358
logFC Rbms3 gene expression [3, 8]: −0.8895
logFC Robol gene expression [3, 8]: −0.6009
logFC Stard13 gene expression [3, 8]: −0.8466
logFC Tacc1 gene expression [3, 8]: −0.4924
logFC Tcf4 gene expression [3, 8]: −0.3055
logFC Tjpl gene expression [3, 8]: −0.3989
logFC Tns3 gene expression [3, 8]: −0.4522
logFC Unc5c gene expression [3, 8]: 0.9517
logFC Utrn gene expression [3, 8]: −0.7697
logFC Zeb2 gene expression [3, 8]: −0.6778
signaling pathways by IPA analysis [4]: reduced NF-κB signaling, IL-6 pathway signaling (e.g., STAT3), and PDGF signaling
risk of renal events (doubling of serum creatinine or end-stage kidney disease) [5]: significantly reducing the risk of renal events
